In patent EP0978517A2, “Triazolopurines, process for their preparation and their use as medicaments” (Boehringer Ingelheim Pharma KG, priority 1996, dated 1998) one finds Ki data, which are given here for 23 compounds.

In assay [1] the target is T1, human A3-adenosine receptor (Homo sapiens, UniProt P0DMS8).
T1 sequence (P0DMS8 1-318): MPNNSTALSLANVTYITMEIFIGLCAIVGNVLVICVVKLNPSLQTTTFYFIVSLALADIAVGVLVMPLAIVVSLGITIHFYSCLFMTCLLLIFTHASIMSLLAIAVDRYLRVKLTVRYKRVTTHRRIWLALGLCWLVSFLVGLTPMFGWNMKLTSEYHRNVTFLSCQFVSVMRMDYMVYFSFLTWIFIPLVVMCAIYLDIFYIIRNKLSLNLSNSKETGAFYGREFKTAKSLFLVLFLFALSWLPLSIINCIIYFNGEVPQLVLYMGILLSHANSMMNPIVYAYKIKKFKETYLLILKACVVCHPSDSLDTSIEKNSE
As to the kind of experiment: A3 receptor binding, determined in analogy to Salvatore et al. (Table 21). Conditions: Rezeptorbindungswerte, Tabelle 21, read-out: KiA3. An excerpt:
Die in Tabelle 21 zusammengefassten A3-Rezeptorbindungswerte wurden in Analogie zu Salvatore et al. "Molecular cloning and characterization of the human A3-adenosine receptor" (Proc. Natl. Acad. Sci. USA 90, 10365-10369, 1993) ermittelt.
Die nachfolgende Tabelle enthält KiA3 (human) Rezeptorbindungswerte. Tabelle 21

Assay [2] deals with T2, human A1 adenosine Receptor (Homo sapiens, UniProt P30542).
T2 sequence (P30542 1-326): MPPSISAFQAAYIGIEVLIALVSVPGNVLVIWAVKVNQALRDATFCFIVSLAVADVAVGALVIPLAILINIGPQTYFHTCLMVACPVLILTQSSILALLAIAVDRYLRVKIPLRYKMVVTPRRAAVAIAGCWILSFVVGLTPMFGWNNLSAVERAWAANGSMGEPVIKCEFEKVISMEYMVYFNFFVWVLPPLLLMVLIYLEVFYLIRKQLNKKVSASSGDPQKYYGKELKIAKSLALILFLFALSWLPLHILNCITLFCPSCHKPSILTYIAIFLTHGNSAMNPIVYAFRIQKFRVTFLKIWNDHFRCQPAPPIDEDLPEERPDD
As to the kind of experiment: A1 receptor binding, determined in analogy to Ensinger et al. (Table 20). The note with it: Rezeptorbindungswerte, Tabelle 20, read-out: KiA1. The text has this:
Die ermittelten A1-Rezeptorbindungswerte wurden in Analogie zu Ensinger et al. in "Cloning and functional characterisation of human A1 adenosine Receptor - Biochemical and Biophysical Communications, Vol 187, No. 2, 919-926, 1992" bestimmt und sind in Tabelle 20 zusammengefaßt.
(§1) Die nachfolgende Tabelle enthält KiA1 (human) und KiA2 (Ratte) Rezeptorbindungswerte. Tabelle 20

For another assay, the target named is A2-Rezeptor (Rattus norvegicus, UniProt P30543). The assay is described as follows: A2 receptor binding (Table 20). Conditions: Ratte; Rezeptorbindungswerte, Tabelle 20; read-out: KiA2.
Text: as §1

Chain of A2-Rezeptor (P30543 whole entry): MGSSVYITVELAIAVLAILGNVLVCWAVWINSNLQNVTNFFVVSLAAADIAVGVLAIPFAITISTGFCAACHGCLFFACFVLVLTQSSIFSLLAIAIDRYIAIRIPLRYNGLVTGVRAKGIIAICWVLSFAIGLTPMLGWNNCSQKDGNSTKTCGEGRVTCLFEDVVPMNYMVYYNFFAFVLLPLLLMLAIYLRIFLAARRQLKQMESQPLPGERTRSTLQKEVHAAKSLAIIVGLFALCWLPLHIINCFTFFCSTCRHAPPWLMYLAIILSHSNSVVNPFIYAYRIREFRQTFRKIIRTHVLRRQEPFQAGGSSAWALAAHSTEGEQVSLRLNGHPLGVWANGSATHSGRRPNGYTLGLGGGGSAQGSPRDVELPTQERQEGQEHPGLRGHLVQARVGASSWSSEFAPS

Consider `CCCn1c2nc[nH]c2c(=O)n2nc(Cc3ccccc3)nc12` [Beispiel 3], for which the Ki in assay [1] turned out to be 4.7 nM. Turning to `CCn1c2nc(C3CCCC3)[nH]c2c(=O)n2nc(Cc3ccccc3)nc12` [Beispiel 9], the Ki in assay [2] is 1.4 nM; on A2-Rezeptor, 422 nM. The corresponding values for `CCCn1c2nc(C3CCCC3)[nH]c2c(=O)n2nc(C(C)(C)C)nc12` [Beispiel 39] are 6 nM and 539 nM.

As for `CCn1c2nc(C3CCCC3)[nH]c2c(=O)n2ncnc12` [Beispiel 30], the Ki in assay [2] came out at 81.5 nM; at A2-Rezeptor it was 3290 nM.

For `CCCCn1c2nc(C3CCCC3)[nH]c2c(=O)n2nc(Cc3ccccc3)nc12` [Beispiel 11], the Ki was found to be 8.3 nM in assay [2] and 345 nM at A2-Rezeptor. `CCc1nc2c([nH]1)c(=O)n1nc(CCc3ccccc3)nc1n2CC` [compound 78]: the Ki in assay [1] turned out to be 5.3 nM. Consider `O=c1c2[nH]c(C3CCCC3)nc2n(Cc2ccccc2)c2nc(Cc3ccccc3)nn12` [Beispiel 12], for which the Ki in assay [1] worked out at 20 nM.

For the compound `CCCn1c2nc(C3CCCC3)[nH]c2c(=O)n2nc(C(C)C)nc12` [Beispiel 37], the results for the Ki (in assay [2]; at A2-Rezeptor) were 6.4 nM and 307 nM, respectively.

For `CCCc1nc2c([nH]1)c(=O)n1nc(Cc3ccccc3)nc1n2CCC` [Beispiel 7], the Ki in assay [2] is 8.1 nM; on A2-Rezeptor, 158 nM. Turning to `CCCn1c2nc(CC)[nH]c2c(=O)n2nc(C3CCCC3)nc12` [Beispiel 23], the Ki in assay [1] is 2 nM. In the case of `CCCn1c2nc(N(C)C)[nH]c2c(=O)n2nc(Cc3ccccc3)nc12` [compound 65], the Ki in assay [1] was 3 nM. `CCCc1nc2n(CCC)c3nc(C4CCCC4)[nH]c3c(=O)n2n1` [Beispiel 36]: the Ki in assay [2] worked out at 5.8 nM; at A2-Rezeptor it was 731 nM.

In the case of `CCn1c2nc(C(C)(C)C)[nH]c2c(=O)n2nc(Cc3ccccc3)nc12` [compound 68], the Ki in assay [1] was found to be 30 nM.

`Cn1c2nc(C3CCCC3)[nH]c2c(=O)n2nc(Cc3ccccc3)nc12` [Beispiel 8]: the Ki in assay [2] worked out at 1.9 nM; on A2-Rezeptor, 363 nM.

With `CCCn1c2nc(N3CCOCC3)[nH]c2c(=O)n2nc(Cc3ccccc3)nc12` [Beispiel 13], the Ki came out at 5.2 nM in assay [2] and 82 nM at A2-Rezeptor. Turning to `CCCCn1c2nc[nH]c2c(=O)n2nc(Cc3ccccc3)nc12` [Beispiel 4], the Ki in assay [1] turned out to be 2.3 nM.

As to `CCCn1c2nc(C3CCCC3)[nH]c2c(=O)n2nc(Cc3ccccc3)nc12` [Beispiel 10], the Ki in assay [2] worked out at 1.7 nM; at A2-Rezeptor it was 730 nM. Consider `CCCCc1nc2n(CCC)c3nc(C4CCCC4)[nH]c3c(=O)n2n1` [Beispiel 38], for which the Ki came to 6.4 nM in assay [2], 532 nM at A2-Rezeptor and 22 nM in assay [1]. For `CCCn1c2nc(C3CCCC3)[nH]c2c(=O)n2nc(-c3ccco3)nc12` [Beispiel 48], the Ki turned out to be 11.4 nM in assay [2] and 4460 nM on A2-Rezeptor.

As to `O=c1c2[nH]cnc2[nH]c2nc(C3CCCC3)nn12` [Beispiel 19], the Ki in assay [1] stood at 3.8 nM. The same measure, in the same setting: in the case of `CCCn1c2nc(CC)[nH]c2c(=O)n2nc(Cc3ccccc3)nc12` [Beispiel 6] it was 2 nM. `CCCCCn1c2nc(C3CCCC3)[nH]c2c(=O)n2nc(Cc3ccccc3)nc12` [Beispiel 25]: the values for the Ki (in assay [2]; at A2-Rezeptor; in assay [1]) were 10.3 nM, 1230 nM and 26 nM, respectively. Consider `CCc1nc2c([nH]1)c(=O)n1nc(COc3ccc(OC)cc3)nc1n2CC` [compound 82], for which, in assay [1], the Ki amounted to 25 nM.
